Data set [1] is described as follows: AIBN forced degradation screen of antioxidants in lestaurtinib microemulsions. The data set is classed as physicochemical. To be noted: AIBN screening; for antioxidant effect against oxidation of lestaurtinib microemulsion: first experiment, thirteen formulations. Here is the method:
Various antioxidants were evaluated for their effectiveness in relation to the composition of the invention. In an initial experiment, capsules containing a lestaurtinib composition prepared according to the invention were placed on accelerated stability conditions. Several impurities were determined (LC-MS) to be related to the oxidation of lestaurtinib. Subsequently, a forced degradation experiment was performed using the radical initiator azoisobutyronitrile (AIBN) adapted for use with lestaurtinib. This was based on the fact that AIBN radical initiates the autoxidation mechanism that the majority of active ingredients follow for oxidation.
Using AIBN as a screening tool, a series of microemulsions prepared in accordance with the invention were formulated using different antioxidants to identify suitable solutions for preventing degradation of the composition. The first experiment used thirteen formulations using several classes of antioxidants (i.e., oxygen scavengers, sacrificial antioxidants and H-atom donors) to determine which reaction pathway was critical for disrupting the oxidation process. From this first experiment, several antioxidants were identified as efficacious: ascorbic acid, vitamin E, BHA and BHT.
A second experiment was then performed based on the information obtained from the first experiment. The second experiment evaluated combinations of antioxidants from different classes, different isomers of the same antioxidants, and mixtures of water-soluble and oil-soluble antioxidants.

Data set [2] is described as follows: Water solubility of lestaurtinib. The data set is classed as physicochemical. Particulars: at 22° C.
The nature of data set [3]: Solubilized concentration of lestaurtinib in microemulsion formed with added water. The procedure:
In one embodiment, microemulsions containing solubilized indolocarbazole compounds, e.g., lestaurtinib, can be prepared using the hydrophilic component and water in the excipient composition but without the presence of the surfactant, e.g., MYRJ®. In one example, a composition without surfactant was prepared as follows. Lestaurtinib 120 mg was weighed into a glass vial and 2 mL of molten PEG-1450 was added.

Data set [4] can be described thus: Maximum solubility of lestaurtinib in prior solid state solution / SEDDS formulations. Particulars: vehicle 25% PEG 400, 25% PEG 1000, 50% MYRJ 52, no added water.
Text: This formulation was a self-emulsifying drug delivery system (SEDDS) comprised of a blend of polyoxyethylene glycols (PEGs) and MYRJ® 52 (polyoxyethylene 40 stearate surfactant available from Croda N.A., Parsippany, N.J.).
Setting [5] is: microemulsion with water addition.

Values after ≈ are worked out from the molar mass of the structure shown.

Consider `COc1ccc(O)c(C(C)(C)C)c1` [BHA, butylhydroxyanisole], for which the “antioxidant effect against oxidation of lestaurtinib microemulsion” value (from here on “antioxidant effect against oxidation”) in data set [1] is reported as “efficacious”. For `O=C1O[C@H]([C@@H](O)CO)C(O)=C1O` [ascorbic acid], the “antioxidant effect against oxidation” value in data set [1] was “efficacious”. For `C[C@]12O[C@H](C[C@]1(O)CO)n1c3ccccc3c3c4c(c5c6ccccc6n2c5c31)CNC4=O` [lestaurtinib, [9S-(9α,10β,12α)]-2,3,9,10,11,12-hexahydro-10-hydroxy-10-(hydroxymethyl)-9-methyl-9,12-epoxy-1H-diindolo[1,2,3-fg:3′,2′,1′-kl]pyrrolo[3,4-i][1,6]benzodiazocin-1-one], the solubility in data set [2] was determined as 1.7 µg/mL (≈ 3.87 µM). The “final concentration of lestaurtinib in clear solution” value in data set [3] (Example 13, PEG-1450 and water, without surfactant, by HPLC) stood at 59.2 mg/mL. In data set [3] (setting [5]), the “solubilized concentration achieved using the invention” value was determined as 87 mg/g and the “solubilized concentration achieved using the invention (total composition weight)” value was “about 9%”. Besides, in data set [4], the “maximum solubility obtainable in SEDDS formulation” value was “about 29 mg/g”. On to `O=S([O-])S(=O)(=O)[O-].[K+].[K+]` [potassium metabisulfite], for which the “effect on impurity levels in final formulation” value in data set [1] (second experiment) is “decreased the overall impurity levels”. Regarding vitamin E, the “antioxidant effect against oxidation” value in data set [1] is “efficacious”.

The record behind these values is patent US20090155352A1, “Microemulsion containing indolocarbazole compound and dosage forms containing the same” (Cephalon, Inc., priority 2007, published 2009).
